In ChEMBL document CHEMBL5032529, “Synthesis and evaluation of tetrahydroisoquinoline derivatives against Trypanosoma brucei rhodesiense” (Eur J Med Chem, 2021) one finds IC50, selectivity ratio and EC50 data, which are given here for 24 molecules.

Structures are written as SMILES. pEC50, pIC50: −log10 of the molar value.

The test system of data set [1] is Trypanosoma brucei rhodesiense. Kind of data set: Antitrypanosomal activity against Trypanosoma brucei rhodesiense STIB900 assessed as parasite growth inhibition. It counts as functional, organism-based.
The test system of data set [2] is Trypanosoma brucei rhodesiense. Briefly: Antitrypanosomal activity against Trypanosoma brucei rhodesiense STIB900 assessed as parasite growth inhibition measured after 72 hrs by alamar blue dye based spectrofluorimetric analysis. It counts as functional, organism-based. To be noted: STIB900, 72 h. (Resazurin is reduced to fluorescent resorufin, in cell work by metabolically active cells.)

Another data set concerns Vero. Kind of data set: Cytotoxicity against African green monkey Vero cells assessed as reduction in cell viability measured after 72 hrs by SRB assay. The format is cell-based. To be noted: Chlorocebus sabaeus. (In SRB staining, fixed cells bind dye roughly in proportion to their protein.)
Data set [3] in a line: Selectivity index, ratio of IC50 for cytotoxicity against African green monkey Vero cells to IC50 for antitrypanosomal activity against Trypanosoma brucei rhodesiense STI B900. The format is toxicity, cell-based. The conditions noted are these: read-out: Ratio IC50.
Data set [4] is described as follows: Inhibition of Trypanosoma Trypanothione reductase in presence of NADPH by DTNB based colorimetric assay.
The subject of another data set is Trypanosoma brucei. Kind of data set: Antitrypanosomal activity against bloodstream form of Trypanosoma brucei assessed as parasite growth inhibition incubated for 3 days by resazurin staining based assay. The format is functional, organism-based. The conditions noted are these: 72 h.

For orientation: pIC50 means −log10 of the IC50, conventionally taken in molar units. Broadly, the pEC50 is −log10 of the EC50, conventionally taken in molar units.

As for `C=C1C[C@H]2OC(=O)C(=C)[C@@H]2[C@H](OC(=O)/C(C)=C/C)C[C@@]2(C)OC1=CC2=O`, the pIC50 in data set [1] is 7.82.

As to `OC1CCCc2ccc(OCc3ccccc3)cc21` (centres undefined), the results for the pIC50 (in data set [2]; in the data set with Vero) were 4.18 and 4.41, respectively. Also, the selectivity ratio in data set [3] is 0.6.

`CN1Cc2c(OCc3ccc(-c4ccccc4)cc3)cccc2[C@@H](O)C1`: the figures for the pIC50 (in data set [2]; with Vero) were 5.51 and less than 4.30, respectively. Moreover, the selectivity ratio in data set [3] is more than 16.

For the molecule `OC1CN(Cc2ccccc2)Cc2ccc(OCc3ccc(-c4ccccc4)cc3)cc21` (centres undefined), the pIC50 in data set [2] was 5.57; in the data set with Vero, 4.83. Further, the selectivity ratio in data set [3] came to 5.5.

In the case of `OC1CNCc2c(OCc3ccc(-c4ccccc4)cc3)cccc21` (centres undefined), the pIC50 was 5.57 in data set [2] and 4.67 in the data set with Vero. Also, the selectivity ratio in data set [3] turned out to be 8.

On to `OC1CNCc2c(OCc3cccc(Br)c3)cccc21` (centres undefined), for which the results for the pIC50 (in data set [2]; in the data set with Vero) were 5.59 and 4.13, respectively. The selectivity ratio in data set [3] came out at 28.3.

For the molecule `CN1Cc2ccc(OCc3ccc(-c4ccccc4)cc3)cc2[C@H](OC(=O)c2ccccc2)C1`, the pIC50 in data set [2] is 4.79; with Vero it was 4.89. The selectivity ratio in data set [3] was determined as 0.8.

Regarding `Clc1ccc2c(c1)N(CCCN1CCN(CCCc3ccccc3)CC1)c1ccccc1S2`, the pIC50 in data set [4] is 6.12. The pEC50 in the data set on Trypanosoma brucei is 6.11.

As for `OC1CN(Cc2ccccc2)Cc2ccc(OCc3ccccc3)cc21` (centres undefined), the pIC50 in data set [2] is 5.08; in the data set on Vero, 4.50. Also, the selectivity ratio in data set [3] is 3.8.

On to `OC1CNCc2ccc(OCc3cccc(Br)c3)cc21` (centres undefined), for which the pIC50 in data set [2] was 5.48; in the data set on Vero, 4.27. The selectivity ratio in data set [3] was 16.3.

Take `OC1CNCc2c(OCc3ccc(Br)cc3)cccc21` (centres undefined): the pIC50 in data set [2] is 5.60; in the data set with Vero, less than 4.30. Further, the selectivity ratio in data set [3] is more than 19.7.

Turning to `Cc1ccccc1COc1cccc2c1CNCC2O` (centres undefined), the results for the pIC50 (in data set [2]; in the data set on Vero) were 4.78 and less than 4.00, respectively. Besides, the selectivity ratio in data set [3] is more than 6.1.

Regarding `OC1CNCc2c(OCc3ccccc3)cccc21` (centres undefined), the pIC50 was 4.58 in data set [2] and less than 4.30 with Vero. The selectivity ratio in data set [3] was more than 1.9.

On to `CN1Cc2c(OCc3ccccc3)cccc2[C@@H](O)C1`, for which the values for the pIC50 (in data set [2]; with Vero) were 4.16 and less than 4.00, respectively. The selectivity ratio in data set [3] was more than 1.4.

Regarding `OC1CNCc2ccc(OCc3ccccc3)cc21` (centres undefined), the pIC50 in data set [2] was 4.76; in the data set on Vero it was less than 4.30. The selectivity ratio in data set [3] was more than 2.9.

Turning to `CN1Cc2ccc(OCc3ccc(-c4ccccc4)cc3)cc2[C@@H](OC(=O)c2ccccc2)C1`, the figures for the pIC50 (in data set [2]; in the data set with Vero) were 4.79 and 4.98, respectively. Moreover, the selectivity ratio in data set [3] was found to be 0.6.

In the case of `OC1CNCc2ccc(OCCC3CCCCC3)cc21` (centres undefined), the pIC50 is 5.60 in data set [2] and less than 4.30 in the data set on Vero. For the same molecule, in data set [3], the selectivity ratio is more than 20.

For the molecule `OC1CNCc2ccc(OCc3ccc(-c4ccccc4)cc3)cc21` (centres undefined), the pIC50 was 6.60 in data set [2] and 4.68 in the data set on Vero. Also, the selectivity ratio in data set [3] worked out at 83.2.

Turning to `Oc1ccc2c(c1)C(O)CN(Cc1ccccc1)C2` (centres undefined), the pIC50 in data set [2] was 4.15; with Vero, less than 4.00. Further, the selectivity ratio in data set [3] was more than 1.4.

As for `Cc1ccccc1COc1ccc2c(c1)C(O)CNC2` (centres undefined), the pIC50 is 5.49 in data set [2] and less than 4.60 in the data set on Vero. In addition, in data set [3], the selectivity ratio was more than 7.7.

Consider `Oc1ccc2c(c1)C(O)CN(Cc1ccc(-c3ccccc3)cc1)C2` (centres undefined), for which the values for the pIC50 (in data set [2]; in the data set with Vero) were 5.27 and less than 4.30, respectively. Further, the selectivity ratio in data set [3] is more than 9.3.

For `CN1CCc2cc(Oc3ccc(-c4ccccc4)cc3)ccc2C1`, the negative logarithm of the IC50 (pIC50) was 5.57 in data set [2] and 4.65 in the data set with Vero. Further, the selectivity ratio in data set [3] worked out at 8.3.

For `CN1Cc2c(OCCC3CCCCC3)cccc2[C@@H](O)C1`, the pIC50 in data set [2] is 4.89; with Vero, 4.20. In addition, the selectivity ratio in data set [3] was found to be 4.8.

`OC1CNCc2c(OCCC3CCCCC3)cccc21` (centres undefined): the values for the negative-log IC50 (pIC50) (in data set [2]; in the data set with Vero) were 5.70 and 4.60, respectively. The selectivity ratio in data set [3] turned out to be 12.6.
